Measurements as given in PubChem BioAssay (NCI).
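Assay format: 96-well plates, 48-hour exposure. The concentration for full growth arrest is given as TGI.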

Assays:
Test in all cases: inhibition of tumour cell growth, NCI panel, 48 h
OVCAR-5 ovarian = system: OVCAR-5 ovarian
ACHN renal = system: ACHN renal
LXFL 529 NSCLC = system: LXFL 529 NSCLC
RXF-631 renal = system: RXF-631 renal
A549 NSCLC = system: A549 NSCLC
DMS 273 small cell lung = system: DMS 273 small cell lung
SNB-78 CNS = system: SNB-78 CNS
MALME-3M melanoma = system: MALME-3M melanoma
HCT-15 colon = system: HCT-15 colon
EKVX NSCLC = system: EKVX NSCLC
SN12C renal = system: SN12C renal
U251 CNS = system: U251 CNS
SR leukemia = system: SR leukemia
MOLT-4 leukemia = system: MOLT-4 leukemia
NCI-H460 lung = system: NCI-H460 lung
SK-MEL-5 melanoma = system: SK-MEL-5 melanoma
NCI-H23 lung = system: NCI-H23 lung
RXF 393 renal = system: RXF 393 renal
HT29 colon = system: HT29 colon
786-0 renal = system: 786-0 renal
SNB-19 CNS = system: SNB-19 CNS
HOP-92 NSCLC = system: HOP-92 NSCLC
COLO 205 colon = system: COLO 205 colon
CAKI-1 renal = system: CAKI-1 renal
KM20L2 colon = system: KM20L2 colon
SK-MEL-2 melanoma = system: SK-MEL-2 melanoma
SF-295 CNS = system: SF-295 CNS
UACC-257 melanoma = system: UACC-257 melanoma
UO-31 renal = system: UO-31 renal
NCI-H226 lung = system: NCI-H226 lung
LOX IMVI melanoma = system: LOX IMVI melanoma
SF-268 CNS = system: SF-268 CNS
M14 melanoma = system: M14 melanoma
HCC-2998 colon = system: HCC-2998 colon
M19-MEL melanoma = system: M19-MEL melanoma
OVCAR-8 ovarian = system: OVCAR-8 ovarian
KM12 colon = system: KM12 colon
SNB-75 CNS = system: SNB-75 CNS
SW-620 colon = system: SW-620 colon
HCT-116 colon = system: HCT-116 colon
CCRF-CEM leukemia = system: CCRF-CEM leukemia
SK-OV-3 ovarian = system: SK-OV-3 ovarian
RPMI-8226 leukemia = system: RPMI-8226 leukemia
IGROV1 ovarian = system: IGROV1 ovarian
XF 498 CNS = system: XF 498 CNS
HOP-62 NSCLC = system: HOP-62 NSCLC
NCI-H522 lung = system: NCI-H522 lung
K-562 leukemia = system: K-562 leukemia
UACC-62 melanoma = system: UACC-62 melanoma
A498 renal = system: A498 renal
SF-539 CNS = system: SF-539 CNS
HOP-18 NSCLC = system: HOP-18 NSCLC
OVCAR-3 ovarian = system: OVCAR-3 ovarian
TK-10 renal = system: TK-10 renal
HL-60(TB) leukemia = system: HL-60(TB) leukemia
SK-MEL-28 melanoma = system: SK-MEL-28 melanoma
DMS 114 small cell lung = system: DMS 114 small cell lung
DLD-1 colon = system: DLD-1 colon

COc1ccc(C2CC(C)=Nc3c([nH]c(=S)[nH]c3=O)N2)cc1 (stereo not drawn)
TGI (OVCAR-5 ovarian): 56.7 µM | TGI (ACHN renal): 36.1 µM | TGI (LXFL 529 NSCLC): 30.5 µM | TGI (RXF-631 renal): > 100 µM | TGI (A549 NSCLC): 40.4 µM | TGI (DMS 273 small cell lung): 35.9 µM | TGI (SNB-78 CNS): > 100 µM | TGI (MALME-3M melanoma): > 100 µM | TGI (HCT-15 colon): 33 µM | TGI (EKVX NSCLC): 50.2 µM | TGI (SN12C renal): 36.7 µM | TGI (U251 CNS): 32.4 µM | TGI (SR leukemia): 65 µM | TGI (MOLT-4 leukemia): 67.4 µM | TGI (NCI-H460 lung): 33.3 µM | TGI (SK-MEL-5 melanoma): 32.5 µM | TGI (NCI-H23 lung): 55.6 µM | TGI (RXF 393 renal): 34.7 µM | TGI (HT29 colon): 47.3 µM | TGI (786-0 renal): 31.2 µM | TGI (SNB-19 CNS): 37.5 µM | TGI (HOP-92 NSCLC): > 100 µM | TGI (COLO 205 colon): 32.7 µM | TGI (CAKI-1 renal): 65 µM | TGI (KM20L2 colon): 31.7 µM | TGI (SK-MEL-2 melanoma): > 100 µM | TGI (SF-295 CNS): 48.5 µM | TGI (UACC-257 melanoma): 33.9 µM | TGI (UO-31 renal): 32.8 µM | TGI (NCI-H226 lung): 44.6 µM | TGI (LOX IMVI melanoma): 34.4 µM | TGI (SF-268 CNS): > 100 µM | TGI (M14 melanoma): 37.4 µM | TGI (HCC-2998 colon): 30.3 µM | TGI (M19-MEL melanoma): 31 µM | TGI (OVCAR-8 ovarian): 35.7 µM | TGI (KM12 colon): 32 µM | TGI (SNB-75 CNS): 70.1 µM | TGI (SW-620 colon): 19 µM | TGI (HCT-116 colon): 30.1 µM | TGI (CCRF-CEM leukemia): 54.4 µM | TGI (SK-OV-3 ovarian): 38.2 µM | TGI (RPMI-8226 leukemia): 50.3 µM | TGI (IGROV1 ovarian): 34.5 µM | TGI (XF 498 CNS): 59.4 µM | TGI (HOP-62 NSCLC): 68.5 µM | TGI (NCI-H522 lung): 30.1 µM | TGI (K-562 leukemia): 34.4 µM | TGI (UACC-62 melanoma): 32.1 µM | TGI (A498 renal): 36.9 µM | TGI (SF-539 CNS): 50.8 µM | TGI (HOP-18 NSCLC): > 100 µM | TGI (OVCAR-3 ovarian): 55.2 µM | TGI (TK-10 renal): 58.1 µM | TGI (HL-60(TB) leukemia): 40.1 µM | TGI (SK-MEL-28 melanoma): 60.5 µM | TGI (DMS 114 small cell lung): 38.8 µM

CCCCCCCCSC(SCCCCCCCC)=C1C(=O)N(c2ccccc2)N=C1C
TGI (OVCAR-5 ovarian): > 100 µM | TGI (ACHN renal): > 100 µM | TGI (LXFL 529 NSCLC): > 100 µM | TGI (RXF-631 renal): > 100 µM | TGI (A549 NSCLC): > 100 µM | TGI (DMS 273 small cell lung): > 100 µM | TGI (SNB-78 CNS): > 100 µM | TGI (MALME-3M melanoma): > 100 µM | TGI (HCT-15 colon): > 100 µM | TGI (EKVX NSCLC): > 100 µM | TGI (SN12C renal): > 100 µM | TGI (U251 CNS): 34 µM | TGI (SR leukemia): 34.6 µM | TGI (MOLT-4 leukemia): 82.2 µM | TGI (NCI-H460 lung): > 100 µM | TGI (SK-MEL-5 melanoma): > 100 µM | TGI (NCI-H23 lung): 95.1 µM | TGI (RXF 393 renal): > 100 µM | TGI (HT29 colon): > 100 µM | TGI (DLD-1 colon): 50 µM | TGI (786-0 renal): > 100 µM | TGI (SNB-19 CNS): > 100 µM | TGI (HOP-92 NSCLC): 77.8 µM | TGI (COLO 205 colon): 46.5 µM | TGI (CAKI-1 renal): 90.7 µM | TGI (KM20L2 colon): > 100 µM | TGI (SK-MEL-2 melanoma): > 100 µM | TGI (SF-295 CNS): > 100 µM | TGI (UACC-257 melanoma): 93.1 µM | TGI (UO-31 renal): > 100 µM | TGI (NCI-H226 lung): > 100 µM | TGI (LOX IMVI melanoma): 36.2 µM | TGI (SF-268 CNS): > 100 µM | TGI (M14 melanoma): > 100 µM | TGI (HCC-2998 colon): > 100 µM | TGI (M19-MEL melanoma): > 100 µM | TGI (OVCAR-8 ovarian): > 100 µM | TGI (KM12 colon): > 100 µM | TGI (SNB-75 CNS): > 100 µM | TGI (SW-620 colon): 29 µM | TGI (HCT-116 colon): 38.7 µM | TGI (CCRF-CEM leukemia): 44 µM | TGI (SK-OV-3 ovarian): > 100 µM | TGI (RPMI-8226 leukemia): 61.9 µM | TGI (IGROV1 ovarian): > 100 µM | TGI (HOP-62 NSCLC): > 100 µM | TGI (NCI-H522 lung): 57.1 µM | TGI (K-562 leukemia): 84.6 µM | TGI (UACC-62 melanoma): > 100 µM | TGI (A498 renal): 92.7 µM | TGI (HOP-18 NSCLC): > 100 µM | TGI (OVCAR-3 ovarian): > 100 µM | TGI (TK-10 renal): > 100 µM | TGI (HL-60(TB) leukemia): 43.7 µM | TGI (SK-MEL-28 melanoma): > 100 µM | TGI (DMS 114 small cell lung): 63.3 µM
